pIC50: −log10 of the molar value.
system: Escherichia coli Tat pathway; assay: Live cell assay: total mCherry fluorescence of cells producing spTorA-mCherry-SsrA (primary HTS assay); assay type: cell-based; conditions: Escherichia coli, read-out: IC50 (Live Cell Assay)
From the text: Having obtained the calibration and validation data described in the previous sections, we next established the protocol for the HTS. Details are provided in the Materials and Methods section. Here, we briefly summarize the assay. A single colony of E. coli strain MC4100(DE3) containing plasmids encoding TatABC and spTorA-mCherry-SsrA was inoculated into LB and grown overnight. The next morning, cells were transferred to fresh media, the production of TatABC and spTorA-mCherry-SsrA was induced, and cultures were aliquoted onto plates with test compounds. NaSCN was included in control wells to simulate a hit. Cells were grown for 8 h, followed by incubation at 4°C overnight, and then read the next day. Setting the total cellular fluorescence obtained with spTorA-mCherry-H6 under Tat^++ conditions to 100%, spTorA-mCherry-SsrA yielded a total cellular fluorescence signal of 63±14%, consistent with SsrA-induced degradation of the mCherry protein. The total cellular fluorescence was further reduced to 36±14% in the presence of 30 mM NaSCN (simulated hit), and to 41±6% in the absence of TatABC, verifying the Δψ- and Tat-dependence of the fluorescence signal (Fig 4D).
A single colony of E. coli strain MC4100(DE3) (pTatABC-DUET1, pTorA-mCherry-SsrA) was inoculated into a 100 mL LB culture supplemented with Ap and Cm and grown at 37°C with shaking (250 rpm) overnight. Cells were harvested by centrifugation at 4,000g for 10 min at room temperature (RT), suspended in 10 mL fresh LB broth supplemented with Ap and Cm, and the optical density (A500) was determined. Simultaneously, 700 mL LB supplemented with 100 mM arabinose, 2 mM IPTG, 100 μg/mL Ap and 68 μg/mL Cm was filter-sterilized (0.22 μm), and then divided into 200 mL (A) and 500 mL (B) portions. Sterile NaSCN (30 mM final; 1.5 mL of 4 M NaSCN) was added to portion A, and an equal ratio of sterile water was added to portion B (3.75 mL). Media and cells were transferred to the HTS facility on ice.
A CyBi-Well vario pipetting workstation (CyBio, Jena, Germany) was used to dispense library compounds and cultures. Library compounds (1 μL) solubilized in DMSO were added to 384-well black, clear-bottomed plates (Greiner Bio-one, Germany) in columns 3 to 22 (320 wells/plate). For controls, DMSO (1 μL) was added to each well in columns 1, 2, […], to achieve DMSO uniformity across the plate. Both portions of LB media were inoculated with E. coli MC4100(DE3) (pTatABC-DUET1, pTorA-mCherry-SsrA) from the concentrated stock to a final A500 = 0.15. The media with 30 mM NaSCN (positive control, or simulated hit) was dispensed into each well of columns 1 and 24 (49 μL each). An equivalent volume of media without NaSCN was dispensed into each well of columns 2 to 23. Columns 2 and 23 lacked NaSCN and test compounds and served as negative controls. The first 12,800 compounds were screened at 5 μM (plates 1–40), and the remaining 38,800 compounds were screened at 20 μM (plates 41–162).
The plates containing cells and dispersed test compounds were grown with shaking (200 rpm) at 25°C for 8 h. Plates were individually mounted, not stacked, on a hollow plastic platform, allowing adequate air circulation. Following the 8 h incubation, plates were transferred to 4°C for 16 h. Each plate was covered with an empty plate to prevent condensation on the lid. […] Following the incubation, plates were read using a BMG Polarstar Omega plate reader (BMG Labtech, Ortenberg, Germany) to determine optical densities (A500) and mCherry fluorescence intensities (EX = 584 nm, EM = 620 nm).
Supplementary file pone.0149659.s003.tiff: S3 Fig IC50's for Hit Compound 181^JS. (A) The total cellular mCherry fluorescence (live cell assay; n = 1), (B) the in vitro NADH-dependent Tat transport efficiency of pre-SufI (n = 1), and (C) the maximum transmembrane electrical potential gradient (n = 1) were measured for a range of concentrations of compound 181^JS (S2E Fig). (D) SDS-PAGE gel showing in-gel fluorescence data used in (B). […]

Compound | pIC50
O=[N+]([O-])c1ccc(O)c(-c2cccs2)c1 [Compound 202, 4-nitro-2-thiophen-2-ylphenol] | 5.30
N#CC(C#N)=NNc1ccccc1Br [Compound 1, [(2-bromophenyl)hydrazono]malononitrile] | 5.22
FC(F)(F)c1cccc(-c2cccc3cnccc23)c1 [Compound 140, 5-[3-(trifluoromethyl)phenyl]isoquinoline] | 4.85
O=[N+]([O-])c1cc([N+](=O)[O-])c2ccccc2c1Cl [Compound 51, 1-chloro-2,4-dinitronaphthalene] | 4.70
Oc1cc(Cl)ccc1Oc1ccc(Cl)cc1Cl [Compound 18^NIH, 5-Chloro-2-(2,4-dichlorophenoxy)phenol] | 5.70
O=C(Nc1cccc(C(F)(F)F)c1)Nc1ncc([N+](=O)[O-])s1 [Compound 181^JS, 1-(5-nitro-1,3-thiazol-2-yl)-3-[3-(trifluoromethyl)phenyl]urea] | 4.70

same assay, conditions: Tat++ conditions; appears to be a consequence of growth inhibition

Compound | effect on synthesis of spTorA-mCherry-SsrA
Cc1ccc(S(=O)(=O)/C=C/C#N)cc1 [Bay 11–7082] | inhibited synthesis
O=C1C=CC(=O)N1c1ccccc1 [N-phenylmaleimide] | inhibited synthesis

same assay, conditions: mCherry fluorescence intensity during in vivo cell growth, Tat++ conditions, 384-well plate; read-out: IC50 (Live Cell Assay)

Compound | pIC50
Fc1nc(F)c(F)c(NNC(=S)Nc2cccc(C(F)(F)F)c2)c1F [Compound 111, 1-[(2,3,5,6-tetrafluoropyridin-4-yl)amino]-3-[(3-trifluoromethyl)phenyl]thiourea] | 4.51
N#CC1c2ccccc2-n2nncc2CN1Cc1cc(Cl)cc(Cl)c1 (stereo not shown) [21^NIH, 5-[(3,5-dichlorophenyl)methyl]-4,6-dihydrotriazolo[1,5-a][1, 4]benzodiazepine-6-carbonitrile] | 4.89
